Consider 13 molecules from ChEMBL document CHEMBL1201862, “PubChem BioAssay data set” (2004).

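In this assay, cells in 96-well plates receive the compound at five concentrations for 48 hours. Endpoints are linearly interpolated between the surrounding concentrations. GI50 = concentration required for 50% inhibition of growth.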 Activity calls are given as the source filed them. No stated cut-off is given here; in the data, active = GI50 up to about 1.1 µM and inactive = higher.

Test systems include NCI-H23; CAKI-1; ACHN; SW-620; CCRF-CEM; HOP-92; DMS-114; A549; SR; EKVX; Malme-3M; HOP-62; SF-295; HL-60; SK-OV-3; OVCAR-8; NCI-H522.
What all share (assay): NCI anticancer screen, dose series, 48 h

With `CCCCCCc1cc(C(=O)Nc2cccc(C(F)(F)F)c2)nc(N)n1`, the GI50 in the test with NCI-H23, in the test with CAKI-1, in the test on ACHN, in the test on SW-620, in the test with CCRF-CEM and with HOP-92 was > 100 µM (inactive) throughout. In addition, the GI50 was > 100 µM (inactive) in the test on DMS-114; > 100 µM (inactive) with A549; > 100 µM (inactive) in the test on SR; > 100 µM (inactive) in the test with EKVX; > 100 µM (inactive) with Malme-3M; 63.4 µM (inactive) in the test on HOP-62. The GI50 in the test with SF-295, with HL-60 and in the test with SK-OV-3 was > 100 µM (inactive) each time.
Regarding `O=C(Nc1ccccc1-c1nn(CO)c(=S)n(CO)c1=O)C(F)(F)F`, the GI50 in the test on NCI-H23, in the test with OVCAR-8, in the test on CAKI-1, with NCI-H522, with ACHN and in the test on SW-620 was > 100 µM (inactive) in each case. Moreover, the GI50 with CCRF-CEM, in the test on HOP-92, in the test on DMS-114, with A549, in the test with SR and in the test on EKVX was > 100 µM (inactive) throughout. The GI50 in the test on Malme-3M, in the test with HOP-62, with SF-295 and in the test on SK-OV-3 was > 100 µM (inactive) each time.
For the molecule `COc1ccc(/C=C2/CCCC/C2=N/O)cc1`, the GI50 is 93.1 µM (inactive) in the test with NCI-H23; > 100 µM (inactive) in the test on OVCAR-8; 40.5 µM (inactive) in the test with NCI-H522; 88.9 µM (inactive) in the test on ACHN; > 100 µM (inactive) with SW-620; 51.6 µM (inactive) in the test with CCRF-CEM. Besides, the GI50 in the test with HOP-92 was 46.1 µM (inactive); with DMS-114 it was 42.6 µM (inactive); with A549 it was > 100 µM (inactive); in the test with EKVX, > 100 µM (inactive); in the test with Malme-3M it was > 100 µM (inactive); in the test with HOP-62 it was > 100 µM (inactive). Also, the GI50 in the test on SF-295, with HL-60 and with SK-OV-3 was > 100 µM (inactive) throughout.
`O=C1OC(c2ccccc2)=N/C1=C/C=C/c1ccco1`: the GI50 in the test with NCI-H23, with OVCAR-8, with CAKI-1, in the test on NCI-H522, with ACHN and in the test with SW-620 was > 100 µM (inactive) each time. Further, the GI50 in the test on CCRF-CEM, in the test on HOP-92, with DMS-114, in the test with A549, in the test on SR and in the test with EKVX was > 100 µM (inactive) each time. Moreover, the GI50 in the test with Malme-3M, with SF-295 and with SK-OV-3 was > 100 µM (inactive) each time.
Turning to `N#CC1=C(c2ccccc2)C(O)(c2ccccc2)NC1=O` (configuration not stated), the GI50 was 42 µM (inactive) in the test with NCI-H23; > 100 µM (inactive) in the test on OVCAR-8; > 100 µM (inactive) in the test on CAKI-1; 37.5 µM (inactive) in the test with ACHN; > 100 µM (inactive) in the test on SW-620; 70.5 µM (inactive) with CCRF-CEM. Further, the GI50 in the test with HOP-92 is 19.5 µM (inactive); in the test with DMS-114, > 100 µM (inactive); in the test with A549 it was > 100 µM (inactive); in the test on SR, 44.2 µM (inactive); in the test with EKVX, > 100 µM (inactive); in the test with Malme-3M, 25.2 µM (inactive). Moreover, the GI50 was > 100 µM (inactive) with HOP-62, 37.4 µM (inactive) in the test on SF-295, > 100 µM (inactive) with HL-60 and 32.7 µM (inactive) in the test on SK-OV-3.
With `COC(=O)C1=C(c2ccc3c(c2)OCO3)OC(c2ccc3c(c2)OCO3)C1` (configuration not stated), the GI50 in the test on NCI-H23 is > 100 µM (inactive); with OVCAR-8 it was > 100 µM (inactive); with CAKI-1 it was > 100 µM (inactive); in the test with ACHN, 80.9 µM (inactive); with SW-620, 67 µM (inactive); in the test on CCRF-CEM, > 100 µM (inactive). The GI50 is > 100 µM (inactive) with HOP-92; 30.1 µM (inactive) in the test with DMS-114; 78.2 µM (inactive) with A549; 74.5 µM (inactive) in the test on SR; > 100 µM (inactive) in the test with EKVX; > 100 µM (inactive) in the test on Malme-3M. In addition, the GI50 in the test on HOP-62 was > 100 µM (inactive); with SF-295, 71.9 µM (inactive); in the test with HL-60 it was > 100 µM (inactive); in the test with SK-OV-3 it was > 100 µM (inactive).
In the case of `COC12CCC(=O)C=C1c1ccccc1N2C(C)=O` (configuration not stated), the GI50 in the test with NCI-H23, with OVCAR-8, with CAKI-1, in the test on ACHN, in the test on SW-620 and in the test with CCRF-CEM was > 100 µM (inactive) throughout. The GI50 was < 0.01 µM (active) with HOP-92; > 100 µM (inactive) with DMS-114; > 100 µM (inactive) in the test with A549; > 100 µM (inactive) in the test on SR; > 100 µM (inactive) in the test on EKVX; > 100 µM (inactive) in the test with HOP-62. In addition, the GI50 in the test on SF-295, in the test with HL-60 and in the test on SK-OV-3 was > 100 µM (inactive) throughout.
Take `Cc1nn(C)cc1P(=S)(c1ccccc1)c1ccccc1`: the GI50 in the test on NCI-H23 is > 100 µM (inactive); in the test on OVCAR-8, 54.3 µM (inactive); in the test on CAKI-1, 95.3 µM (inactive); in the test with ACHN, 61.7 µM (inactive); in the test with SW-620 it was 51.9 µM (inactive); in the test with CCRF-CEM, 31.8 µM (inactive). Also, the GI50 with HOP-92 is 35.2 µM (inactive); in the test with DMS-114, 30.9 µM (inactive); in the test on A549, 55 µM (inactive); in the test on SR, 22.5 µM (inactive); with EKVX, > 100 µM (inactive); in the test on Malme-3M it was 58.6 µM (inactive). Also, the GI50 in the test on HOP-62 was 70.3 µM (inactive); with SF-295, 67.5 µM (inactive); in the test with HL-60, 18.6 µM (inactive); in the test with SK-OV-3 it was 24.8 µM (inactive).
For `COc1ccc2nc(NC(=O)C(=O)NNC(=O)c3ccncc3)sc2c1`, the GI50 with NCI-H23, in the test on OVCAR-8, with CAKI-1, in the test on NCI-H522, in the test with ACHN and with SW-620 was > 100 µM (inactive) in each case. Besides, the GI50 in the test on CCRF-CEM, with HOP-92, with DMS-114, with A549, with EKVX and in the test with Malme-3M was > 100 µM (inactive) in each case. For the same molecule, the GI50 with HOP-62, in the test with SF-295, with HL-60 and in the test with SK-OV-3 was > 100 µM (inactive) in each case.
Turning to `Cn1c(=O)nc2n(-c3cc(C(F)(F)F)cc(C(F)(F)F)c3)c3ccccc3nc-2c1=O`, the GI50 in the test on NCI-H23 was > 100 µM (inactive); with OVCAR-8, > 100 µM (inactive); in the test with CAKI-1 it was > 100 µM (inactive); with ACHN, 75.3 µM (inactive); in the test with SW-620 it was > 100 µM (inactive); in the test on HOP-92, 45.1 µM (inactive). In addition, the GI50 with DMS-114 is 26.3 µM (inactive); in the test with A549, > 100 µM (inactive); with SR, > 100 µM (inactive); in the test on EKVX, > 100 µM (inactive); in the test with Malme-3M, > 100 µM (inactive); in the test with HOP-62 it was > 100 µM (inactive). The GI50 is 52.1 µM (inactive) with SF-295, > 100 µM (inactive) in the test with HL-60 and > 100 µM (inactive) with SK-OV-3.
In the case of `O=C1c2ccccc2NC1(c1ccccc1)c1c(-c2ccccc2)[nH]c2ccccc12` (configuration not stated), the GI50 in the test on NCI-H23 is 21.4 µM (inactive); in the test with OVCAR-8 it was 24.9 µM (inactive); with CAKI-1 it was 8.77 µM (inactive); with ACHN, 9.25 µM (inactive); in the test on SW-620, 51.9 µM (inactive); in the test with CCRF-CEM, 6.3 µM (inactive). Moreover, the GI50 in the test on HOP-92 was 5.35 µM (inactive); in the test with DMS-114, 15.3 µM (inactive); in the test with A549, 3.98 µM (inactive); in the test with SR, 3.65 µM (inactive); with EKVX, 35.2 µM (inactive); in the test on HOP-62, 67.5 µM (inactive). In addition, the GI50 was 6.34 µM (inactive) in the test on SF-295, 5.04 µM (inactive) in the test on HL-60 and 37.5 µM (inactive) in the test with SK-OV-3.
For the molecule `Cc1nc2c(ccc3ncccc32)[nH]1`, the GI50 with NCI-H23, in the test with OVCAR-8, with CAKI-1, with NCI-H522, in the test with ACHN and in the test with SW-620 was > 100 µM (inactive) each time. Moreover, the GI50 with CCRF-CEM, with HOP-92, in the test on DMS-114, in the test with A549, in the test on EKVX and in the test on Malme-3M was > 100 µM (inactive) each time. Moreover, the GI50 in the test on HOP-62, with SF-295, in the test on HL-60 and in the test on SK-OV-3 was > 100 µM (inactive) throughout.
Consider `CCCCN(C)CC(C(C)=O)C(c1ccccc1)c1c(O)c2ccccc2oc1=O` (configuration not stated), for which the GI50 with NCI-H23 was 62.2 µM (inactive); in the test with OVCAR-8, > 100 µM (inactive); with CAKI-1, > 100 µM (inactive); with NCI-H522, > 100 µM (inactive); with ACHN it was > 100 µM (inactive); in the test with SW-620 it was > 100 µM (inactive). In addition, the GI50 in the test with CCRF-CEM, with DMS-114, with A549, in the test with SR, with EKVX and in the test with Malme-3M was > 100 µM (inactive) throughout. Moreover, the GI50 in the test on HOP-62, in the test with SF-295, with HL-60 and in the test with SK-OV-3 was > 100 µM (inactive) in each case.
